Measurements taken from patent US7705009B2, “4-aminopyrimidine-5-thione derivatives” (Hoffman-La Roche Inc., priority 2005, dated 2010).
Like-named read-outs stand apart in the source and are kept apart here.

Key:
[1] = target: human cyclin B-CDK1 (Homo sapiens, UniProt P06493); test: CDK1 HTRF kinase assay (Ki measurement); type: biochemical; conditions: ATP at 3x Km
Description: (§1) To determine inhibition of Cdk4, Cdk2 and Cdk1 activity, kinase assays were conducted using FlashPlate™ assays (NEN™-Life Science Products). FlashPlate assays were performed using recombinant human cyclin B-CDK1, human cyclin E-CDK2 or human cyclin D1-CDK4 complexes. GST-cyclinE (GST-cycE), CDK2, GST-cyclinB (GST-cycB), CDK1, GST-CDK4 and cyclin D1 (cycD1) cDNA clones in baculovirus vectors were provided by Dr. W. Harper at the Baylor College of Medicine, Houston, Tex.
(§2) Alternatively, inhibition activity may be measured using Ki. […] These were done in 96-well format and read in 384-well plate format. The assays were run at 3× their respective Kms for ATP.
Twenty microliters were added to the wells of a 96-well plate. […] Blank wells without CDK4 were included. The plates were incubated at 37° C. for 30 minutes with shaking. […] After 30 minutes at 37° C., 15 μl/well of 3 nM Lance-Eu-W1024 labeled anti-rabbit IgG and 60 nM Allophycocyanin conjugated anti-His6 (PerkinElmer Life Sciences) in 25 mM Hepes, pH 7.0, 0.5 mg/ml BSA were added. Following a one hour incubation at 37 deg C., 35 μl of each well, in duplicate, were transferred to 384-well black plates. The plates were read using either ViewLux or Victor V readers (PerkinElmer Life Sciences) using an excitation wavelength of 340 nm and dual emission wavelengths of 615 nm and 665 nm. […] For ATP competitive inhibitors, the Ki values were calculated according to the following equation: Ki=IC50/(1+S/Km) where S refers to the substrate concentration and Km refers to the Michaelis-Menten constant.
(§3) The CDK1 and CDK2 assays were similarly run except for small differences in reagent and protein concentrations:
The compound and enzyme buffers for both assays contained 10 mM MgCl2. […] CDK1 at a reagent concentration of 0.15 ng/ul and CDK2 at a reagent concentration of 0.06 ng/ul were used.

[2] = target: human cyclin E-CDK2 (Homo sapiens, UniProt P24941); test: CDK2 HTRF kinase assay (Ki measurement); type: biochemical
Description: as §1, §2
Twenty microliters were added to the wells of a 96-well plate. […] Blank wells without CDK4 were included. The plates were incubated at 37° C. for 30 minutes with shaking. […] After 30 minutes at 37° C., 15 μl/well of 3 nM Lance-Eu-W1024 labeled anti-rabbit IgG and 60 nM Allophycocyanin conjugated anti-His6 (PerkinElmer Life Sciences) in 25 mM Hepes, pH 7.0, 0.5 mg/ml BSA were added. Following a one hour incubation at 37 deg C., 35 μl of each well, in duplicate, were transferred to 384-well black plates. The plates were read using either ViewLux or Victor V readers (PerkinElmer Life Sciences) using an excitation wavelength of 340 nm and dual emission wavelengths of 615 nm and 665 nm.
as §3
The compound and enzyme buffers for both assays contained 10 mM MgCl2.

[3] = target: human cyclin D1-CDK4 (Homo sapiens, UniProt P11802); test: CDK4 HTRF kinase assay (Ki measurement); type: biochemical; conditions: ATP at 3x Km
human cyclin D1-CDK4, sequence (P11802 whole entry): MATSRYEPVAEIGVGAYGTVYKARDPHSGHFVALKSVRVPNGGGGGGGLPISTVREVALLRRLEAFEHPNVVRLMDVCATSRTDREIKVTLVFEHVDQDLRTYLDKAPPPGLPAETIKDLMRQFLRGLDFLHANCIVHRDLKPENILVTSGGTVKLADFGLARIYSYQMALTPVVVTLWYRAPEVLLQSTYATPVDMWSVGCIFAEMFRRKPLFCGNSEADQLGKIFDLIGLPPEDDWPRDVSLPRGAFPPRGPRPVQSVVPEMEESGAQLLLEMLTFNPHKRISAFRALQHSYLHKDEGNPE
human cyclin D1-CDK4, sequence (P24385 whole entry partner): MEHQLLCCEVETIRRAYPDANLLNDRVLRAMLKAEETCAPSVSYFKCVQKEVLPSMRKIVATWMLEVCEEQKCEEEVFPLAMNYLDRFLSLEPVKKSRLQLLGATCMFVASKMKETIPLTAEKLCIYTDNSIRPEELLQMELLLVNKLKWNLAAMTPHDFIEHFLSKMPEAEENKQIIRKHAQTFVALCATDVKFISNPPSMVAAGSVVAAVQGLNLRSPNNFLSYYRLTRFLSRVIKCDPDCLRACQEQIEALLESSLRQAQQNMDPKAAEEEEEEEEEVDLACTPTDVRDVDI
Description: To determine inhibition of Cdk4, Cdk2 and Cdk1 activity, kinase assays were conducted using FlashPlateTM assays (NENTM-Life Science Products). […] W. Harper at the Baylor College of Medicine, Houston, Tex. Proteins were co-expressed in High FiveTM insect cells and the complex was purified on glutathione Sepharose resin (Pharmacia, Piscataway, N.J.) as previously described (Harper, J. W. et al. Cell 1993, 75, 805-816). A 6×-Histidine tagged […]) was used as the substrate for the cycD1-CDK4, cycB-CDK1 and the cycE-CDK2 assays (the expression plasmid was provided by Dr. Veronica Sullivan, Department of Molecular Virology, Roche Research Centre, Welwyn Garden City, United Kingdom). The Rb protein is a natural substrate for phosphorylation by CDK4, CDK2 and CDK1 (see Herwig and Strauss Eur. J. Biochem. Vol. 246 (1997) pp. 581-601 and the references cited therein). Alternatively, inhibition activity may be measured using Ki. Using the protein constructs described above in Example 19A above, CDK1, CDK2, and CDK4 HTRF assays were set up. These were done in 96-well format and read in 384-well plate format. The assays were run at 3× their respective Kms for ATP. In the CDK4 assay, test compounds were diluted to 3× their final concentrations in 25 mM Hepes, pH 7.0, 6.25 mM MgCl2, 1.5 mM DTT, 135 μM ATP. The DMSO concentration was no greater than 4.76%. Twenty microliters were added to the wells of a 96-well plate. The kinase reaction was initiated by the addition of 40 μl/well of a solution containing 0.185 μM Rb and 2.25 μg/ml CDK4 in 25 mM Hepes, pH 7.0, 6.25 mM MgCl2, 0.003% Tween-20, 0.3 mg/ml BSA, 1.5 mM DTT. Blank wells without CDK4 were included. The plates were incubated at 37° C. for 30 minutes with shaking. The kinase reaction was terminated by the addition of 15 μl/well of 1.6 uM anti-phospho-Rb ([…]) antibody (Cell Signaling Inc.) in 25 mM Hepes, pH 7.0, 24 mM EDTA, 0.2 mg/ml BSA. After 30 minutes at 37° C., 15 μl/well of 3 nM Lance-Eu-W1024 labeled anti-rabbit IgG and 60 nM Allophycocyanin conjugated anti-His6 (PerkinElmer Life Sciences) in 25 mM Hepes, pH 7.0, 0.5 mg/ml BSA were added. Following a one hour incubation at 37 deg C., 35 μl of each well, in duplicate, were transferred to 384-well black plates. The plates were read using either ViewLux or Victor V readers (PerkinElmer Life Sciences) using an excitation wavelength of 340 nm and dual emission wavelengths of 615 nm and 665 nm. IC50 values (the concentration of test compounds reducing the assay control fluorescence read-out by 50%) were first calculated from net readings at 665 nm, normalized for europium readings at 615 nm. For ATP competitive inhibitors, the Ki values were calculated according to the following equation: […]

[4] = test system: HCT116 colorectal carcinoma cell line; test: Tetrazolium dye proliferation assay (MTT assay); type: cell-based; conditions: Homo sapiens, HCT-116, HCT116 cells
Description: Proliferation was evaluated by the tetrazolium dye assay according to the procedure of Denizot and Lang (Denizot, F. and Lang, R. J Immunol Methods 1986, 89, 271-277). The cell line used was HCT116, a colorectal carcinoma cell line obtained from the American Type Cell Culture Collection (ATCC; Rockville, Md.). The cells were grown in McCoy's 5A medium supplemented with 10% FCS and L-glutamine.
Cells were plated at the appropriate seeding density to give logarithmic growth over the course of the assay in a 96-well tissue culture plate. Plates were incubated overnight at 37° C. in a humidified incubator with 5% CO2. The next day, test compounds were serially diluted to four times the final concentration in the appropriate medium containing 1.2% DMSO. One-fourth final volume of each dilution was added in duplicate to the plates containing cells. The same volume of 1.2% DMSO in medium was added to a row of “control wells” such that the final concentration of DMSO in each well was 0.3%. Wells to which no cells were added served as the “blank.” Wells to which no inhibitor was added served as “no inhibitor control.” The plates were) returned to the incubator, and at set time points (determined by their growth curves) plates were analyzed as described below.
3-(4,5-dimethylthiazole-2-yl)-2,5-diphenyl-2H-tetrazolium bromide (thiazolyl blue; MTT; Sigma) was added to each well to yield a final concentration of 1 mg/ml. Plates were returned to the incubator for 2.5-3 hours at 37° C. The MTT-containing medium was removed and the resulting formazan metabolite was solubilized in 100% ethanol with shaking for 15 minutes at room temperature. Absorbance readings were taken in a microtiter plate reader (Dynatech and Molecular Devices plate readers were used interchangeably) at a wavelength of 570 nm with a 650 nm reference. Percent inhibition (% INH) is calculated by subtracting the absorbance of the blank well from all wells, then subtracting the ratio of the average absorbance of each test duplicate (SAVE) by the average of the controls (CAVE) from 1.00. The final number is then multiplied by 100 (% INH=(1.00−SAVE/CAVE)×100). The concentration at which 50% inhibition of cell proliferation is obtained (the IC50) is determined from the linear regression of a plot of the logarithm of the concentration versus percent inhibition.

[5] = HTRF assay, ATP at 3x Km, read-out: Ki CDK2

human cyclin B-CDK1, sequence (P06493 whole entry): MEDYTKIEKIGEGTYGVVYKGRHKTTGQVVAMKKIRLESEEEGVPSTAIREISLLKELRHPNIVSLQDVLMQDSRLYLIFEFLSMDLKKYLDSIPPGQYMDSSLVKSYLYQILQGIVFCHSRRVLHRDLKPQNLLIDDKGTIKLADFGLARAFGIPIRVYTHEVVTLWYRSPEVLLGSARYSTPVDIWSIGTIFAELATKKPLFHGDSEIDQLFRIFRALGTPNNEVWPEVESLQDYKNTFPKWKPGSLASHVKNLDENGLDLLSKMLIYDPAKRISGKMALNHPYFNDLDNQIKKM
human cyclin B-CDK1, sequence (P14635 whole entry partner): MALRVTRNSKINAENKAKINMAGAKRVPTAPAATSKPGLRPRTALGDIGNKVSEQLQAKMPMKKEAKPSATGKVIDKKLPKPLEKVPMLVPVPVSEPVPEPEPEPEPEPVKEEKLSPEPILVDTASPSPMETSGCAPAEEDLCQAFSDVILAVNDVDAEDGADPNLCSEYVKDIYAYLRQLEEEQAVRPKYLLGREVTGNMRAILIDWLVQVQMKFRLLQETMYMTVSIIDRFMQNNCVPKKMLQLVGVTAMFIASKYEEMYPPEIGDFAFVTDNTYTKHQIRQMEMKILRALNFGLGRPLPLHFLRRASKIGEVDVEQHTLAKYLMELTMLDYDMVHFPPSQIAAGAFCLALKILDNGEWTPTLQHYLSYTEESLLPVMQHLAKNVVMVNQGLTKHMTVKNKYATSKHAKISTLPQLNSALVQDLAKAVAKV

Ki [1] [nM] | Ki [2] [nM] | Ki [3] [nM] | IC50 [4] [nM] | Ki [2, 5] [nM] | Compound
< 10 | 1.3 | 1.3 | 81 | – | COc1ccc(F)cc1C(=S)c1cnc(NC2CCN(S(C)(=O)=O)CC2)nc1N [Example 5, [4-Amino-2-(1-methanesulfonyl-piperidin-4-ylamino)-pyrimidin-5-yl]-(5-fluoro-2-methoxy-phenyl)-methanethione]
3 | – | 0.26 | 13 | 0.1 | CS(=O)(=O)N1CCC(Nc2ncc(C(=S)c3c(F)c(F)cc4ccoc34)c(N)n2)CC1 [Example 6, [4-Amino-2-(1-methanesulfonyl-piperidin-4-ylamino)-pyrimidin-5-yl]-(5,6-difluoro-benzofuran-7-yl)-methanethione]
3 | – | 3 | 32 | 1 | COc1ccc(F)c(F)c1C(=S)c1cnc(Nc2ccc(S(N)(=O)=O)cc2)nc1N [Example 14, 4-[4-Amino-5-(2,3-difluoro-6-methoxy-thiobenzoyl)-pyrimidin-2-ylamino]-benzenesulfonamide]
3 | 1 | 1 | 171 | – | CS(=O)(=O)N1CCC(Nc2ncc(C(=S)c3c(F)cccc3F)c(N)n2)CC1 [Example 15, [4-Amino-2-(1-methanesulfonyl-piperidin-4-ylamino)-pyrimidin-5-yl]-(2,6-difluoro-phenyl)-methanethione]

Compound | Ki [1] [nM] | Ki [2] [nM] | Ki [3] [nM] | IC50 [4] [nM] | Ki [2, 5] [nM]
CS(=O)(=O)N1CCC(Nc2ncc(C(=S)c3c(Cl)ccc(F)c3F)c(N)n2)CC1 [Example 13, [4-Amino-2-(1-methanesulfonyl-piperidin-4-ylamino)-pyrimidin-5-yl]-(6-chloro-2,3-difluoro-phenyl)-methanethione] | 3 | – | 3 | 176 | 1
